For this experiment, the target named is USP14 (Homo sapiens (Human), UniProt P54578). Briefly: Usp14 inhibition assay (Example 57B, B-series compounds). The experiment is classed as biochemical. The settings on record: IC50 class; average value from a minimum of two experimental determinations. An excerpt: Example 57B: Usp14 Inhibition Assay
The IC50 values in the Table below represent the average value from a minimum of two experimental determinations.

Sequence of USP14 (P54578 whole entry, looked up): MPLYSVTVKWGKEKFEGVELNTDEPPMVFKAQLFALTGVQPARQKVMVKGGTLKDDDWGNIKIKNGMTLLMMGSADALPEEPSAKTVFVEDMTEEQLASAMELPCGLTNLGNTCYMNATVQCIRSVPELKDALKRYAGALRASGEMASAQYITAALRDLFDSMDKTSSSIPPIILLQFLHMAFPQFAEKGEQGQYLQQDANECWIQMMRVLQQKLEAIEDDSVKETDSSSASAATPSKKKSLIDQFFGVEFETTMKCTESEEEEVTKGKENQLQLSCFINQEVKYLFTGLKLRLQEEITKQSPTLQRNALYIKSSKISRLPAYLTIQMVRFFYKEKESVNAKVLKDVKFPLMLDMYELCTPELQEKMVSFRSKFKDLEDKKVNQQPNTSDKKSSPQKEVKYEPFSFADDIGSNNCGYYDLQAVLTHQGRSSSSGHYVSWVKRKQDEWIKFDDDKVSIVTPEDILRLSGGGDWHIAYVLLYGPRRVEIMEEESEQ

On to `Cc1cc(C(=O)CN2[C@H]3CCC[C@@H]2[C@@H](O)C3)c(C)n1-c1ccc(C#N)cc1` (racemic) [Example 83B, (±)-4-(3-(2-((1S,5R,6S)-6-Hydroxy-8-azabicyclo[3.2.1]octan-8-yl)acetyl)-2,5-dimethyl-1H-pyrrol-1-yl)benzonitrile], for which the IC50 is 0.05 to 0.5 µM. For `Cc1cc(C(=O)CN2C3CCC2[C@@H](O)C3)c(C)n1-c1ccc(C#N)c(F)c1` (mixture of isomers) [Example 90B, (±)-2-Fluoro-4-(3-(2-((2R)-2-hydroxy-7-azabicyclo[2.2.1]heptan-7-yl)acetyl)-2,5-dimethyl-1H-pyrrol-1-yl)benzonitrile], the IC50 is < 0.05 µM. Regarding `Cc1cc(C(=O)CN2C3CCC2[C@@H](O)C3)c(C)n1-c1ccc(C#N)cc1F` (mixture of isomers) [Example 91B, (±)-3-Fluoro-4-(3-(2-((2R)-2-hydroxy-7-azabicyclo[2.2.1]heptan-7-yl)acetyl)-2,5-dimethyl-1H-pyrrol-1-yl)benzonitrile], the 50% inhibitory concentration (IC50) lay within 0.05 to 0.5 µM. Regarding `Cc1cc(C(=O)CN2C3CC4CC2C(C3)O4)c(C)n1-c1ccc(C#N)cc1` (racemic) [Example 92B, (±)-4-(3-(2-((2R,3aS,5R,6aS)-Hexahydro-4H-2,5-methanofuro[3,2-b]pyrrol-4-yl)acetyl)-2,5-dimethyl-1H-pyrrol-1-yl)benzonitrile], the IC50 fell in the range of 0.05 to 0.5 µM.

For the compound `Cc1cc(C(=O)CN2C3CCC2[C@@H](O)C3)c(C)n1-c1cc(F)c(C#N)c(F)c1` (mixture of isomers) [Example 94B, (±)-2,6-Difluoro-4-(3-(2-((2R)-2-hydroxy-7-azabicyclo[2.2.1]heptan-7-yl)acetyl)-2,5-dimethyl-1H-pyrrol-1-yl)benzonitrile], the IC50 lay in the range of 0.05 to 0.5 µM. The same measure for `Cc1c(C#N)c(C(=O)CN2C3CCC2[C@@H](O)C3)c(C)n1-c1ccc(C#N)cc1` (mixture of isomers) [Example 95B, (±)-1-(4-Cyanophenyl)-4-(2-((2R)-2-hydroxy-7-azabicyclo[2.2.1]heptan-7-yl)acetyl)-2,5-dimethyl-1H-pyrrole-3-carbonitrile]: > 0.5 µM; for `Cc1c(C(=O)CN2C3CCC2[C@@H](O)C3)cc(Cl)n1-c1ccc(C#N)cc1` (mixture of isomers) [Example 96B, (±)-4-(5-Chloro-3-(2-((2R)-2-hydroxy-7-azabicyclo[2.2.1]heptan-7-yl)acetyl)-2-methyl-1H-pyrrol-1-yl)benzonitrile]: 0.05 to 0.5 µM; for `Cc1c(C(=O)CN2C3CCC2[C@@H](O)C3)c(Cl)c(Cl)n1-c1ccc(C#N)cc1` (mixture of isomers) [Example 97B, (±)-4-(2,3-Dichloro-4-(2-((2R)-2-hydroxy-7-azabicyclo[2.2.1]heptan-7-yl)acetyl)-5-methyl-1H-pyrrol-1-yl)benzonitrile]: 0.05 to 0.5 µM. Regarding `Cc1c(C(=O)CN2C3CCC2[C@@H](O)C3)cc(C2CC2)n1-c1ccc(C#N)cc1` (mixture of isomers) [Example 98B, (±)-4-(5-Cyclopropyl-3-(2-((2R)-2-hydroxy-7-azabicyclo[2.2.1]heptan-7-yl)acetyl)-2-methyl-1H-pyrrol-1-yl)benzonitrile], the IC50 fell in the range of 0.05 to 0.5 µM. `Cc1cc(C(=O)CN2C3CCC2[C@@H](O)C3)c(C)n1-c1ccc(C#N)c(F)c1F` (mixture of isomers) [Example 99B, (±)-2,3-Difluoro-4-(3-(2-((2R)-2-hydroxy-7-azabicyclo[2.2.1]heptan-7-yl)acetyl)-2,5-dimethyl-1H-pyrrol-1-yl)benzonitrile]: the IC50 was > 0.5 µM.

For the compound `Cc1cc(C(=O)CN2[C@@H]3CC[C@H]2[C@@H](C)C3)c(C)n1-c1ccc(C#N)cc1` (racemic) [Example 100B, (±)-4-(2,5-Dimethyl-3-(2-((1S,2S,4R)-2-methyl-7-azabicyclo[2.2.1]heptan-7-yl)acetyl)-1H-pyrrol-1-yl)benzonitrile], the IC50 is > 0.5 µM. Regarding `Cc1c(F)c(C(=O)CN2[C@@H]3CC[C@H]2[C@@H](C)C3)c(C)n1-c1ccc(C#N)cc1` (racemic) [Example 101B, (±)-4-(3-Fluoro-2,5-dimethyl-4-(2-((1S,2S,4R)-2-methyl-7-azabicyclo[2.2.1]heptan-7-yl)acetyl)-1H-pyrrol-1-yl)benzonitrile], the IC50 lay within 0.05 to 0.5 µM.

As to `Cc1cc(C(=O)CN2[C@@H]3CC[C@H]2[C@@H](C(F)(F)F)C3)c(C)n1-c1ccc(C#N)cc1` (racemic) [Example 102B, (±)-4-(2,5-Dimethyl-3-(2-((1R,2R,4S)-2-(trifluoromethyl)-7-azabicyclo[2.2.1]heptan-7-yl)acetyl)-1H-pyrrol-1-yl)benzonitrile], the IC50 was > 0.5 µM.

With `Cc1c(F)c(C(=O)CN2[C@@H]3CC[C@H]2[C@@H](C(F)(F)F)C3)c(C)n1-c1ccc(C#N)cc1` (racemic) [Example 103B, (±)-4-(3-Fluoro-2,5-dimethyl-4-(2-((1R,2R,4S)-2-(trifluoromethyl)-7-azabicyclo[2.2.1]heptan-7-yl)acetyl)-1H-pyrrol-1-yl)benzonitrile], the IC50 is > 0.5 µM. `Cc1cc(C(=O)CN2[C@@H]3CC[C@H]2[C@@H](OC(F)(F)F)C3)c(C)n1-c1ccc(C#N)cc1` (racemic) [Example 105B, (±)-4-(2,5-Dimethyl-3-(2-((1R,2R,4S)-2-(trifluoromethoxy)-7-azabicyclo[2.2.1]heptan-7-yl)acetyl)-1H-pyrrol-1-yl)benzonitrile]: the IC50 was > 0.5 µM.

In turn, `Cc1cc(C(=O)CN2C3CCC2[C@@H]2COC[C@H]32)c(C)n1-c1ccc(C#N)cc1` (racemic) [Example 106B, (±)-4-(2,5-Dimethyl-3-(2-((3aR,4R,7S,7aS)-octahydro-4,7-epiminoisobenzofuran-8-yl)acetyl)-1H-pyrrol-1-yl)benzonitrile] displayed an IC50 of 0.05 to 0.5 µM. Under `Cc1cc(C(=O)CN2C3CCC2[C@@H](O)C3)c(C)n1-c1cc(F)c(C#N)cc1F` (mixture of isomers) [Example 107B, (±)-2,5-Difluoro-4-(3-(2-((2R)-2-hydroxy-7-azabicyclo[2.2.1]heptan-7-yl)acetyl)-2,5-dimethyl-1H-pyrrol-1-yl)benzonitrile] stands 0.05 to 0.5 µM. The same measure for `Cc1c(C(=O)CN2C3CCC2[C@@H](O)C3)cc(C2CCC2)n1-c1ccc(C#N)cc1` (mixture of isomers) [Example 108B, (±)-4-(5-Cyclobutyl-3-(2-((2R)-2-hydroxy-7-azabicyclo[2.2.1]heptan-7-yl)acetyl)-2-methyl-1H-pyrrol-1-yl)benzonitrile]: < 0.05 µM.

Take `Cc1c(C(=O)CN2C3CCC2[C@@H](O)C3)cc(C(F)(F)F)n1-c1ccc(C#N)cc1` (mixture of isomers) [Example 109B, (±)-4-(3-(2-((2R)-2-Hydroxy-7-azabicyclo[2.2.1]heptan-7-yl)acetyl)-2-methyl-5-(trifluoromethyl)-1H-pyrrol-1-yl)benzonitrile]: the IC50 was 0.05 to 0.5 µM. Compound `Cc1c(C(=O)CN2C3CCC2[C@@H](O)C3)cc(C2CCCC2)n1-c1ccc(C#N)cc1` (mixture of isomers) [Example 110B, (±)-4-(5-Cyclopentyl-3-(2-((2R)-2-hydroxy-7-azabicyclo[2.2.1]heptan-7-yl)acetyl)-2-methyl-1H-pyrrol-1-yl)benzonitrile] came in with an IC50 of 0.05 to 0.5 µM. Under `Cc1c(C(=O)CN2[C@@H]3CC[C@H]2[C@@H](O)C3)cc(C2CCCCC2)n1-c1ccc(C#N)cc1` (racemic) [Example 111B, (±)-4-(5-Cyclohexyl-3-(2-((1R,2R,4S)-2-hydroxy-7-azabicyclo[2.2.1]heptan-7-yl)acetyl)-2-methyl-1H-pyrrol-1-yl)benzonitrile] stands 0.05 to 0.5 µM. Under `Cc1c(C(=O)CN2[C@@H]3CC[C@H]2[C@@H](O)C3)cc(C(C)C)n1-c1ccc(C#N)cc1` (racemic) [Example 112B, (±)-4-(3-(2-((1R,2R,4S)-2-Hydroxy-7-azabicyclo[2.2.1]heptan-7-yl)acetyl)-5-isopropyl-2-methyl-1H-pyrrol-1-yl)benzonitrile] stands 0.05 to 0.5 µM; under `Cc1c(C(=O)CN2C3CCC2[C@@H](O)C3)cc(C(C)(C)C)n1-c1ccc(C#N)cc1` (mixture of isomers) [Example 113B, (±)-4-(5-(tert-Butyl)-3-(2-((2R)-2-hydroxy-7-azabicyclo[2.2.1]heptan-7-yl)acetyl)-2-methyl-1H-pyrrol-1-yl)benzonitrile], 0.05 to 0.5 µM. Compound `CCC(C)c1cc(C(=O)CN2C3CCC2[C@@H](O)C3)c(C)n1-c1ccc(C#N)cc1` (mixture of isomers) [Example 114B, (±)-4-(5-(sec-Butyl)-3-(2-((1R,2R,4S)-2-hydroxy-7-azabicyclo[2.2.1]heptan-7-yl)acetyl)-2-methyl-1H-pyrrol-1-yl)benzonitrile] came in with an IC50 of 0.05 to 0.5 µM. The compound `Cc1c(C(=O)CN2C3CCC2[C@@H](O)C3)cc(CC(F)(F)F)n1-c1ccc(C#N)cc1` (mixture of isomers) [Example 115B, (±)-4-(3-(2-((2R)-2-Hydroxy-7-azabicyclo[2.2.1]heptan-7-yl)acetyl)-2-methyl-5-(2,2,2-trifluoroethyl)-1H-pyrrol-1-yl)benzonitrile] came in with an IC50 of 0.05 to 0.5 µM. Compound `Cc1c(F)c(C(=O)CN2C3CC4CC2CC(C3)O4)c(C)n1-c1ccc(C#N)c(F)c1` (racemic) [Example 116B, (±)-4-(3-(2-((1r,3r)-2-Oxa-6-azaadamantan-6-yl)acetyl)-4-fluoro-2,5-dimethyl-1H-pyrrol-1-yl)-2-fluorobenzonitrile] yielded an IC50 of 0.05 to 0.5 µM. Consider `Cc1cc(C(=O)CN2C3CCC2[C@@H](O)C3)c(C)n1-c1ccc(Cl)c(F)c1` (mixture of isomers) [Example 117B, (±)-1-(1-(4-Chloro-3-fluorophenyl)-2,5-dimethyl-1H-pyrrol-3-yl)-2-((2R)-2-hydroxy-7-azabicyclo[2.2.1]heptan-7-yl)ethan-1-one], for which the IC50 lay in the range of 0.05 to 0.5 µM. For the compound `Cc1cc(C(=O)CN2C3CCC2[C@@H](O)C3)c(C)n1-c1cc(F)c(Cl)c(F)c1` (mixture of isomers) [Example 118B, (±)-1-(1-(4-Chloro-3,5-difluorophenyl)-2,5-dimethyl-1H-pyrrol-3-yl)-2-((2R)-2-hydroxy-7-azabicyclo[2.2.1]heptan-7-yl)ethan-1-one], the IC50 was > 0.5 µM. The compound `Cc1c(C(=O)CN2C3CCC2[C@@H](O)C3)cc(Br)n1-c1ccc(C#N)cc1` (mixture of isomers) [Example 119B, (±)-4-(5-Bromo-3-(2-((2R)-2-hydroxy-7-azabicyclo[2.2.1]heptan-7-yl)acetyl)-2-methyl-1H-pyrrol-1-yl)benzonitrile] had an IC50 of 0.05 to 0.5 µM.

The values are drawn from US11560385B2, “Proteasome activity enhancing compounds” (Proteostasis Therapeutics, Inc., priority 2018, dated 2023).
